From patent publication US20240018123A1, “COMPOUND FOR INHIBITING OR DISINTEGRATING ANDROGEN RECEPTOR, AND PHARMACEUTICAL USE THEREOF” (KOREA RESEARCH INSTITUTE OF CHEMICAL TECHNOLOGY, priority 2020, published 2024)

Biological target: T1, Androgen receptor (AR) (Homo sapiens, UniProt P10275, T878A)
T1 construct: 5.5×10^5 LNCap cells were injected into each well of a 6-well plate; endogenous in cells; host or cells: LNCaP
T1 sequence (P10275 1-920 T878A): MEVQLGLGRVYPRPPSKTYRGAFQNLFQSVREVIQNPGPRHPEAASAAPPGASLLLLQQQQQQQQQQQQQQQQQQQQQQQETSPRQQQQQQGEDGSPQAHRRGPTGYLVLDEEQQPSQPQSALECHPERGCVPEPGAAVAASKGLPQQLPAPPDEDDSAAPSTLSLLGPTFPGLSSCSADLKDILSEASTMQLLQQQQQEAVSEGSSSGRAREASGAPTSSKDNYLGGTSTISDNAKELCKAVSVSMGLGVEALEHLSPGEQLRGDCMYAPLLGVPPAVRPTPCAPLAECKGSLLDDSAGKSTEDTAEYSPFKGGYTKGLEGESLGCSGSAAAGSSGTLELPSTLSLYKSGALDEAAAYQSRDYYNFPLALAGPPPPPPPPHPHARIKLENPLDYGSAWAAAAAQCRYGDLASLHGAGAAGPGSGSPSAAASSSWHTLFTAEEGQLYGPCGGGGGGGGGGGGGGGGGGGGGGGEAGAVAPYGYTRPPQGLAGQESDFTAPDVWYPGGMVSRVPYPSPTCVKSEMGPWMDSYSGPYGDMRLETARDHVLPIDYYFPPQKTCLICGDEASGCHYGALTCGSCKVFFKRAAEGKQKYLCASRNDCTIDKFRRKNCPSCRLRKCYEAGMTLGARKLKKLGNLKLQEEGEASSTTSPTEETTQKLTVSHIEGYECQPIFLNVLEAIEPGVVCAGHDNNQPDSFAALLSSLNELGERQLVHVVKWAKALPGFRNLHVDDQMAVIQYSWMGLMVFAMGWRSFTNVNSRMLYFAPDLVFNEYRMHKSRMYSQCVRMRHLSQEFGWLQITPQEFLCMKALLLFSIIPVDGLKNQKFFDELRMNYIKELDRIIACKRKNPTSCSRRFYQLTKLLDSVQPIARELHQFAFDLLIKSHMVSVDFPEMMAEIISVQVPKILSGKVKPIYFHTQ
Experiment: Assessment of AR proteolytic activity (Western blotting of LNCap cell lysates)
Assay type: cell-based
Conditions: 24 hours of treatment, Western blotting quantified with Image J
Protocol: Assessment of AR Proteolytic Activity
Androgen receptor (AR) proteolytic activity of the compound according to the present invention was evaluated as follows: Specifically, 5.5×10^5 LNCap cells were injected into each well of a 6-well plate. […] After 24 hours of treatment, cells were collected and lysed using RIPA Lysis buffer (50 mM Tris-HCl, pH7.5, 150 mM NaCl, 1% Triton X-100, 2 mM EDTA, 0.1% SDS, 0.5% sodium deoxycholate and protease inhibitor cocktail) to make cell lysates. Western blotting was performed, and the results were quantified using Image J program.

Structure (SMILES) | Degradation (1 μM treated in LNCaP, % AR remaining)
CC1(C)C(NC(=O)c2ccc(N3CCC4(CC3)CN(CC3CN(c5ccc6c(=O)n(C7CCC(=O)NC7=O)nnc6c5)C3)C4)nc2)C(C)(C)C1Oc1ccc(C#N)c(Cl)c1 (stereo not shown) [Example 175, N-((1r,3r)-3-(3-chloro-4-cyanophenoxy)-2,2,4,4-tetramethylcyclobutyl)-6-(2-((1-(3-(2,6-dioxopiperidin-3-yl)-4-oxo-3,4-dihydrobenzo[d][1,2,3]triazin-7-yl)azetidin-3-yl)methyl)-2,7-diazaspiro[3.5]nonan-7-yl)nicotinamide] | 10%
CC1(C)C(NC(=O)c2ccc(N3CCC4(CC3)CN(CC3CN(c5ccc6nnn(C7CCC(=O)NC7=O)c(=O)c6c5)C3)C4)nc2)C(C)(C)C1Oc1ccc(C#N)c(Cl)c1 (stereo not shown) [Example 176, N-((1r,3r)-3-(3-chloro-4-cyanophenoxy)-2,2,4,4-tetramethylcyclobutyl)-6-(2-((1-(3-(2,6-dioxopiperidin-3-yl)-4-oxo-3,4-dihydrobenzo[d][1,2,3]triazin-6-yl)azetidin-3-yl)methyl)-2,7-diazaspiro[3.5]nonan-7-yl)nicotinamide] | 6%
CC1(C)C(NC(=O)c2ccc(C#CCN3CCN(c4ccc5c(=O)n(C6CCC(=O)NC6=O)nnc5c4)CC3)nc2)C(C)(C)C1Oc1ccc(C#N)c(Cl)c1 (stereo not shown) [Example 177, N-((1r,3r)-3-(3-chloro-4-cyanophenoxy)-2,2,4,4-tetramethylcyclobutyl)-6-(3-(4-(3-(2,6-dioxopiperidin-3-yl)-4-oxo-3,4-dihydrobenzo[d][1,2,3]triazin-7-yl)piperazin-1-yl)prop-1-yn-1-yl)nicotinamide] | 56%
CC1(C)C(NC(=O)c2ccc(C#CCN3CCN(c4ccc5nnn(C6CCC(=O)NC6=O)c(=O)c5c4)CC3)nc2)C(C)(C)C1Oc1ccc(C#N)c(Cl)c1 (stereo not shown) [Example 178, N-((1r,3r)-3-(3-chloro-4-cyanophenoxy)-2,2,4,4-tetramethylcyclobutyl)-6-(3-(4-(3-(2,6-dioxopiperidin-3-yl)-4-oxo-3,4-dihydrobenzo[d][1,2,3]triazin-6-yl)piperazin-1-yl)prop-1-yn-1-yl)nicotinamide] | 23%
CC1(C)C(NC(=O)c2ccc(C#CCN3CC4(CCN(c5ccc6c(=O)n(C7CCC(=O)NC7=O)nnc6c5)CC4)C3)nc2)C(C)(C)C1Oc1ccc(C#N)c(Cl)c1 (stereo not shown) [Example 179, N-((1r,3r)-3-(3-chloro-4-cyanophenoxy)-2,2,4,4-tetramethylcyclobutyl)-6-(3-(7-(3-(2,6-dioxopiperidin-3-yl)-4-oxo-3,4-dihydrobenzo[d][1,2,3]triazin-7-yl)-2,7-diazaspiro[3.5]nonan-2-yl)prop-1-yn-1-yl)nicotinamide] | 8%
CC1(C)C(NC(=O)c2ccc(C#CCN3CC4(CCN(c5ccc6nnn(C7CCC(=O)NC7=O)c(=O)c6c5)CC4)C3)nc2)C(C)(C)C1Oc1ccc(C#N)c(Cl)c1 (stereo not shown) [Example 180, N-((1r,3r)-3-(3-chloro-4-cyanophenoxy)-2,2,4,4-tetramethylcyclobutyl)-6-(3-(7-(3-(2,6-dioxopiperidin-3-yl)-4-oxo-3,4-dihydrobenzo[d][1,2,3]triazin-6-yl)-2,7-diazaspiro[3.5]nonan-2-yl)prop-1-yn-1-yl)nicotinamide] | 18%
CC1(C)C(NC(=O)c2ccc(C#CCN3CCC4(CC3)CN(c3ccc5c(=O)n(C6CCC(=O)NC6=O)nnc5c3)C4)nc2)C(C)(C)C1Oc1ccc(C#N)c(Cl)c1 (stereo not shown) [Example 181, N-((1r,3r)-3-(3-chloro-4-cyanophenoxy)-2,2,4,4-tetramethylcyclobutyl)-6-(3-(2-(3-(2,6-dioxopiperidin-3-yl)-4-oxo-3,4-dihydrobenzo[d][1,2,3]triazin-7-yl)-2,7-diazaspiro[3.5]nonan-7-yl)prop-1-yn-1-yl)nicotinamide] | 18%
CC1(C)C(NC(=O)c2ccc(C#CCN3CCC4(CC3)CN(c3ccc5nnn(C6CCC(=O)NC6=O)c(=O)c5c3)C4)nc2)C(C)(C)C1Oc1ccc(C#N)c(Cl)c1 (stereo not shown) [Example 182, N-((1r,3r)-3-(3-chloro-4-cyanophenoxy)-2,2,4,4-tetramethylcyclobutyl)-6-(3-(2-(3-(2,6-dioxopiperidin-3-yl)-4-oxo-3,4-dihydrobenzo[d][1,2,3]triazin-6-yl)-2,7-diazaspiro[3.5]nonan-7-yl)prop-1-yn-1-yl)nicotinamide] | 16%
CC1(C)C(NC(=O)c2ccc(C#CC3CCN(CC4CN(c5ccc6c(=O)n(C7CCC(=O)NC7=O)nnc6c5)C4)CC3)nc2)C(C)(C)C1Oc1ccc(C#N)c(Cl)c1 (stereo not shown) [Example 183, N-((1r,3r)-3-(3-chloro-4-cyanophenoxy)-2,2,4,4-tetramethylcyclobutyl)-6-((1-((1-(3-(2,6-dioxopiperidin-3-yl)-4-oxo-3,4-dihydrobenzo[d][1,2,3]triazin-7-yl)azetidin-3-yl)methyl)piperidin-4-yl)ethynyl)nicotinamide] | 7.5%
CC1(C)C(NC(=O)c2ccc(C#CC3CCN(CC4CN(c5ccc6nnn(C7CCC(=O)NC7=O)c(=O)c6c5)C4)CC3)nc2)C(C)(C)C1Oc1ccc(C#N)c(Cl)c1 (stereo not shown) [Example 184, N-((1r,3r)-3-(3-chloro-4-cyanophenoxy)-2,2,4,4-tetramethylcyclobutyl)-6-((1-((1-(3-(2,6-dioxopiperidin-3-yl)-4-oxo-3,4-dihydrobenzo[d][1,2,3]triazin-6-yl)azetidin-3-yl)methyl)piperidin-4-yl)ethynyl)nicotinamide] | 11%
CC1(C)[C@H](NC(=O)c2ccc(N3CC[C@H](CN4CC5(CCN(c6ccc7c(=O)n(C8CCC(=O)NC8=O)nnc7c6)CC5)C4)C3)nc2)C(C)(C)[C@H]1Oc1ccc(C#N)c(Cl)c1 (stereo partly drawn) [Example 185, N-((1r,3R)-3-(3-chloro-4-cyanophenoxy)-2,2,4,4-tetramethylcyclobutyl)-6-((3R)-3-((7-(3-(2,6-dioxopiperidin-3-yl)-4-oxo-3,4-dihydrobenzo[d][1,2,3]triazin-7-yl)-2,7-diazaspiro[3.5]nonan-2-yl)methyl)pyrrolidin-1-yl)nicotinamide] | 10%
CC1(C)C(NC(=O)c2ccc(N3CC[C@H](CN4CC5(CCN(c6ccc7nnn(C8CCC(=O)NC8=O)c(=O)c7c6)CC5)C4)C3)nc2)C(C)(C)C1Oc1ccc(C#N)c(Cl)c1 (stereo partly drawn) [Example 186, N-((1r,3R)-3-(3-chloro-4-cyanophenoxy)-2,2,4,4-tetramethylcyclobutyl)-6-((3R)-3-((7-(3-(2,6-dioxopiperidin-3-yl)-4-oxo-3,4-dihydrobenzo[d][1,2,3]triazin-6-yl)-2,7-diazaspiro[3.5]nonan-2-yl)methyl)pyrrolidin-1-yl)nicotinamide] | 11%
CC1(C)C(NC(=O)c2ccc(N3CC[C@@H](CN4CC5(CCN(c6ccc7c(=O)n(C8CCC(=O)NC8=O)nnc7c6)CC5)C4)C3)nc2)C(C)(C)C1Oc1ccc(C#N)c(Cl)c1 (stereo partly drawn) [Example 187, N-((1r,3S)-3-(3-chloro-4-cyanophenoxy)-2,2,4,4-tetramethylcyclobutyl)-6-((3S)-3-((7-(3-(2,6-dioxopiperidin-3-yl)-4-oxo-3,4-dihydrobenzo[d][1,2,3]triazin-7-yl)-2,7-diazaspiro[3.5]nonan-2-yl)methyl)pyrrolidin-1-yl)nicotinamide] | 27%
